Results taken from publication PMC7232442, “Biofilm Eradication by Symmetrical Selenoesters for Food-Borne Pathogens” (Microorganisms, 2020).
≈ marks a conversion by molar mass, not a printed value. Where “and” joins values, the source holds several entries; their conditions need not be identical. Identical values can stand only once. Like-named read-outs stand apart in the source and are kept apart here.

Tests used:
[1] = tested on: S. Typhimurium SE01 Wild-Type; test: MIC determination by microdilution method; format: cell-based, Salmonella enterica serovar Typhimurium; details: Salmonella enterica
Description: (§1) The minimum inhibitory concentrations (MICs) of compounds were determined according to the Clinical and Laboratory Standard Institute guidelines (CLSI). MIC values of the compounds were determined by visual inspection. The solvent was also assayed to ensure there was no antibacterial effect and the concentration (1 v/v%) applied in the assays had no antibacterial activity. DMSO was used at subinhibitory concentration (1 v/v%) in the assays.

[2] = tested on: S. Typhimurium SE02 ΔacrB; test: MIC determination by microdilution method; format: cell-based, Salmonella enterica serovar Typhimurium; details: Salmonella enterica
Description: as §1

[3] = tested on: S. Typhimurium SE03 ΔacrA; test: MIC determination by microdilution method; format: cell-based, Salmonella enterica serovar Typhimurium; details: Salmonella enterica
Description: as §1

[4] = tested on: S. aureus MRSA 272123; test: MIC determination by microdilution method; format: cell-based; details: Staphylococcus aureus
Description: as §1

[5] = tested on: Staphylococcus aureus ATCC 25923; test: MIC determination by microdilution method; format: cell-based; details: S. aureus ATCC 25923
Description: as §1

[6] = tested on: MRC-5 human embryonal lung fibroblast cells; test: Cytotoxicity assay (MTT); format: cell-based; details: MRC-5 cells
Description: The adherent MRC-5 human embryonal lung fibroblast cells were cultured in 96-well flat-bottomed microtiter plates, using EMEM supplemented with 10% heat-inactivated fetal bovine serum. The density of the cells was adjusted to 1 × 10^4 cells in 100 μL per well, the cells were seeded overnight at 37 °C, 5% CO2, then the medium was removed from the plates containing the cells, and the dilutions of selenocompounds previously made in a separate plate were added to the cells in 200 μL.
The culture plates were incubated at 37 °C for 24 h; at the end of the incubation period, 20 μL of MTT (thiazolyl blue tetrazolium bromide, Sigma) solution (from a stock solution of 5 mg/mL) was added to each well. After incubation at 37 °C for 4 h, 100 μL of sodium dodecyl sulfate (SDS; Sigma) solution (10% in 0.01 M HCI) was added to each well and the plates were further incubated at 37 °C overnight. Cell growth was determined by measuring the optical density (OD) at 540/630 nm with Multiscan EX ELISA reader (Thermo Labsystems, Cheshire, WA, USA). Inhibition of the cell growth was determined according to the formula below:IC50 = 100 − [(ODsample − ODmedium control)/(ODcell control − ODmedium control)] × 100(1)
Results are expressed in terms of IC50, defined as the inhibitory dose that reduces the growth of the cells exposed to the tested compounds by 50%.

[7] = tested on: S. aureus MRSA 272123; test: Real-time ethidium bromide accumulation assay; format: cell-based, Staphylococcus aureus; details: for Relative Fluorescence Index (RFI): S. aureus MRSA 272123, ½ MIC, minute 60
Description: (§2) The impact of compounds on EB accumulation was determined by the automated EB method using a CLARIOstar Plus plate reader (BMG Labtech, UK). Firstly, the bacterial strain was incubated until it reached an optical density (OD) of 0.6 at 600 nm. The culture was washed with phosphate buffered saline (PBS; pH 7.4) and centrifuged at 13,000× g for 3 min, the cell pellet was re-suspended in PBS. The compounds were added at ½ MIC concentration to PBS containing a non-toxic concentration of EB (1 µg/mL). Then, 50 μL of the EB solution containing the compound were transferred into 96-well black microtiter plate (Greiner Bio-One Hungary Kft, Hungary), and 50 μL of bacterial suspension (OD600 0.6) were added to the each well. Then, the plates were placed into the CLARIOstar plate reader, and the fluorescence was monitored at excitation and emission wavelengths of 530 nm and 600 nm every minute for one hour on a real-time basis. From the real-time data, the activity of the compounds, namely the relative fluorescence index (RFI) of the last time point (minute 60) of the EB accumulation assay, was calculated according to the following formula:RFI = (RFtreated − RFuntreated)/RFuntreated(2) where RFtreated is the relative fluorescence (RF) at the last time point of EB retention curve in the presence of an inhibitor, and RFuntreated is the RF at the last time point of the EB retention curve of the untreated control having the solvent control (DMSO).

[8] = tested on: S. Typhimurium SE39 ΔtolC; test: Real-time ethidium bromide accumulation assay; format: cell-based, Salmonella enterica serovar Typhimurium; set-up: key to Relative Fluorescence Index (RFI): RFI = (RFtreated − RFuntreated)/RFuntreated at minute 60; details: for Intracellular EB accumulation (in words): S. Typhimurium SE39, 60 min; for Relative Fluorescence Index (RFI): S. Typhimurium SE39 ΔtolC, ½ MIC, minute 60
Description: as §2

[9] = tested on: S. Typhimurium SE03 ΔacrA; test: Real-time ethidium bromide accumulation assay; format: cell-based, Salmonella enterica serovar Typhimurium; set-up: key to Relative Fluorescence Index (RFI): RFI = (RFtreated − RFuntreated)/RFuntreated at minute 60; details: for Relative Fluorescence Index (RFI): S. Typhimurium SE03 ΔacrA, ½ MIC, minute 60
Description: as §2

[10] = tested on: S. aureus ATCC 25923; test: Real-time ethidium bromide accumulation assay; format: cell-based, Staphylococcus aureus; set-up: key to Relative Fluorescence Index (RFI): RFI = (RFtreated − RFuntreated)/RFuntreated at minute 60; details: for Relative Fluorescence Index (RFI): S. aureus ATCC 25923, ½ MIC, minute 60
Description: as §2

[11] = tested on: S. aureus MRSA; test: Biofilm formation using crystal violet; format: cell-based, Staphylococcus aureus; details: for Biofilm inhibition: ½ MIC, 48 h
Description: The anti-biofilm effect of the tested compounds against S. aureus strains and wild-type S. Typhimurium SE01 was measured using crystal violet (CV; 0.1% (v/v)). This dye is used to detect the total biofilm biomass formed. Overnight cultures were diluted to OD of 0.1 at 600 nm in TSB medium. Then, the bacterial cultures were added to 96-well microtiter plates and the compounds were added at ½ MIC concentration. The final volume was 200 μL in each well. The microtiter plates were incubated at 30 °C for 48 h with gentle agitation (100 rpm). After the incubation period, TSB medium was discarded, and the plates were washed with tap water to remove unattached cells. Then 200 μL crystal violet was added to the wells and incubated for 15 min at room temperature. Then, CV was removed from the wells and the plates were washed again with tap water, and 200 μL of 70% ethanol was added to the wells. Finally, the biofilm formation was determined by measuring the OD at 600 nm using Multiscan EX ELISA plate reader (Thermo Labsystems, Cheshire, WA, USA). The anti-biofilm effect of compounds was expressed in the percentage (%) of decrease in biofilm formation.

[12] = tested on: S. Typhimurium SE01 Wild-Type; test: Real-time ethidium bromide accumulation assay; format: cell-based, Salmonella enterica serovar Typhimurium; details: ½ MIC, minute 60
Description: as §2

[13] = tested on: S. Typhimurium SE02 ΔacrB; test: Real-time ethidium bromide accumulation assay; format: cell-based, Salmonella enterica serovar Typhimurium; details: for Relative Fluorescence Index (RFI): S. Typhimurium SE02 ΔacrB, ½ MIC, minute 60
Description: as §2

[14] = tested on: S. Typhimurium SE39 ΔtolC; test: MIC determination by microdilution method; format: cell-based, Salmonella enterica serovar Typhimurium; details: Salmonella enterica
Description: as §1

[15] = S. Typhimurium SE01 wild-type, read-out: MIC
[16] = S. aureus MRSA 272123, read-out: MIC
[17] = Staphylococcus aureus, ATCC25923

Compound | MIC [1, 15] [µM] | MIC [2] [µM] | MIC [3] [µM] | MIC [4, 16] [µM] | MIC [5] [µM] | MIC [5, 17] [µM] | IC50 ([6]; Homo sapiens, MRC5, 24 h) [µM] | Relative Fluorescence Index (RFI) [7] | Intracellular EB accumulation (in words) [8] | Relative Fluorescence Index (RFI) [8] | Relative Fluorescence Index (RFI) [9] | Relative Fluorescence Index (RFI) [10] | Biofilm inhibition [11] | Relative Fluorescence Index (RFI) [12] | Relative Fluorescence Index (RFI) [13] | IC50 ([6]; 24 h) [µM] | MIC [14] [µM] | further results
CC(=O)C[Se]C(=O)c1cc(C(=O)[Se]CC(C)=O)cc(C(=O)[Se]CC(C)=O)c1 [Se-K3] | 50 (≈ 28.4 µg/mL) | 25 (≈ 14.2 µg/mL) | 25 (≈ 14.2 µg/mL) | 0.78 (≈ 0.442 µg/mL) | 0.39 (≈ 0.221 µg/mL) | 0.39 (≈ 0.221 µg/mL) | 0.74 | −0.18 | significant EB accumulation | 0.44 | 0.28 | 0.16 | 84.7% | −0.20 | 0.08 |  |  | Anti-biofilm effect (in words) [11]: most effective anti-biofilm agent
N#CCC[Se]C(=O)c1cccc(C(=O)[Se]CC#N)c1 [Se-C2] | 25 (≈ 9.6 µg/mL) |  |  | 50 (≈ 19.2 µg/mL) |  | 6.25 (≈ 2.4 µg/mL) | > 75 | −0.13 |  | 0.25 | 0.09 | 0.08 |  | −0.10 | 0.03 | > 100 |  | 
COC(=O)C[Se]C(=O)c1cccc(C(=O)[Se]CC(=O)OC)c1 [Se-E2] | > 100 | > 100 | > 100 | 100 (≈ 43.6 µg/mL) | 12.5 (≈ 5.45 µg/mL) | 12.5 (≈ 5.45 µg/mL) | > 75 | 0.33 | significantly increased | 0.59 | 0.56 | 0.67 |  | 0.09 | 0.70 | > 100 | > 100 | EPI activity (in words) ([7]; resistant S. aureus MRSA, 60 min): effective; Intracellular EB accumulation (in words) ([9]; S. Typhimurium SE03, 60 min): significantly increased; EPI activity (in words) ([10]; reference (sensitive) S. aureus, 60 min): effective; Intracellular EB accumulation (in words) ([13]; S. Typhimurium SE02, 60 min): significantly increased
N#CC[Se]C(=O)c1cc(C(=O)[Se]CC#N)cc(C(=O)[Se]CC#N)c1 [Se-C3] |  | 12.5 (≈ 6.45 µg/mL) | 12.5 (≈ 6.45 µg/mL) |  |  | 1.56 (≈ 0.805 µg/mL) | > 75 | −0.05 |  | 0.06 | 0.08 | 0.18 |  | −0.07 | −0.02 | > 100 | 25 (≈ 12.9 µg/mL) | MIC ([1]; TYPHIMURIUM): 12.5 µM (≈ 6.45 µg/mL); MIC ([4]; MRSA): 12.5 µM (≈ 6.45 µg/mL); MIC fold higher than the methylketone selenoester [5]: 4 fold
N#CC[Se]C(=O)c1ccc(C(=O)[Se]CC#N)cc1 [Se-C1] | 25 (≈ 9.25 µg/mL) |  |  | 50 (≈ 18.5 µg/mL) |  | 6.25 (≈ 2.31 µg/mL) | > 75 | −0.15 |  | 0.13 | 0.04 | 0.14 | 43.7% and ~50% | −0.08 | 0.06 | > 100 |  | 
N#CC(C#N)=NNc1cccc(Cl)c1 [CCCP, carbonyl cyanide m-chlorophenyl hydrazone, reference compound] |  |  |  |  |  |  |  |  |  | 1.32 | 1.81 | 0.52 |  | 3.50 | 2.46 |  |  | 
